From PubChem BioAssay (NCI)
Values joined by “and” are separate entries in the source; they are usually repeats but may differ in a detail not shown here. Equal values may be shown once.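 Compound exposure: 48 hours, 5 concentrations, 96-well plates. Abbreviation: GI50, concentration required for 50% inhibition of growth. TGI: total growth inhibition.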

Experiments:
Experiment in all cases: inhibition of tumour cell growth, NCI panel, 48 h
[1] = tested on: A498 renal
[2] = tested on: HCC-2998 colon
[3] = tested on: HOP-62 NSCLC
[4] = tested on: HOP-92 NSCLC
[5] = tested on: M14 melanoma
[6] = tested on: RXF 393 renal
[7] = tested on: SNB-19 CNS
[8] = tested on: UACC-257 melanoma
[9] = tested on: BT-549 breast
[10] = tested on: MDA-MB-231 breast

| Structure (SMILES) | TGI [1] | TGI [2] [µM] | TGI [3] | TGI [4] | TGI [5] [µM] | TGI [6] | TGI [7] | TGI [8] | GI50 [1] [µM] | GI50 [9] [µM] | TGI [9] [µM] | GI50 [2] [µM] | GI50 [3] [µM] | GI50 [4] [µM] | GI50 [5] [µM] | GI50 [10] [µM] | TGI [10] [µM] | GI50 [7] [µM] | GI50 [8] [µM] | GI50 [6] [µM] |
| --- | --- | --- | --- | --- | --- | --- | --- | --- | --- | --- | --- | --- | --- | --- | --- | --- | --- | --- | --- | --- |
| CCCCCCCC(=O)OCC1OC(n2cc(F)c(=O)[nH]c2=O)C(NC(=O)OCc2ccccc2)C(O)C1O (stereo unspecified) | > 100 µM | 52.2 | > 100 µM | 65.2 µM | > 100 | > 100 µM | > 100 µM | > 100 µM | – | – | – | – | – | – | – | – | – | – | – | – |
| O=c1cc(-c2ccccc2)[nH]c2c(Cl)cccc12 | 91.6 µM | > 100 | > 100 µM | – | > 100 | 67.1 µM | > 100 µM | > 100 µM | – | – | – | – | – | – | – | – | – | – | – | – |
| COc1ccc2c(c1)CCc1[nH]nc(-c3cc(OC)c(OC)c(OC)c3)c1-2 | < 0.01 µM | 11.4 | 10.8 µM | 28.5 µM | 10.9 | – | 46.2 µM | – | < 0.01 | < 0.01 | 10.6 | < 0.01 | < 0.01 | < 0.01 | < 0.01 | < 0.01 | 44.8 | < 0.01 | – | – |
| CC(=O)OC(C)(C)/C=C/C(=O)[C@](C)(O)[C@H]1[C@H](O)C[C@@]2(C)[C@@H]3CC=C4[C@@H](C[C@H](O)C(=O)C4(C)C)[C@]3(CO)C(=O)C[C@]12C | 0.431 µM and 0.213 µM | 15.1 | 0.528 µM and 0.482 µM | 0.435 µM and 0.454 µM | 4.12 | 0.405 µM and 0.458 µM | 0.58 µM and 0.559 µM | 0.943 µM and 6.36 µM | 0.0791 | – | – | – | – | 0.282 | 0.0857 | – | – | 0.213 | 0.284 | – |
| C/C(CC(=O)Nc1ccc(Cl)cc1)=N\NC(=O)C[n+]1ccccc1 | – | > 100 | > 100 µM | > 100 µM | > 100 | > 100 µM | – | > 100 µM | – | – | – | – | – | – | – | – | – | – | – | – |
| CC(=O)C1COC(O)C1C (stereo unspecified) | > 100 µM | – | 33 µM | 78.7 µM | 61.1 | – | > 100 µM | > 100 µM | – | – | > 100 | – | – | – | – | – | 68 | – | – | – |
| NC(CC(=O)Nc1ccc(Cl)cc1)=Nc1ccccc1 | > 100 µM | > 100 | > 100 µM | – | > 100 | > 100 µM | > 100 µM | > 100 µM | – | – | – | – | – | – | – | – | – | – | – | – |
| O=[P+](O)c1cc2ccccc2c2ccccc12 | – | > 100 | > 100 µM | – | > 100 | > 100 µM | > 100 µM | – | – | – | – | – | – | – | – | – | – | – | – | – |
| O=C1[C@H]2ON(c3ccccc3)C(c3ccccc3F)[C@H]2C(=O)N1c1ccc(Cc2ccc(N3C(=O)[C@@H]4ON(c5ccccc5)C(c5ccccc5F)[C@@H]4C3=O)cc2)cc1 (stereo partly specified) | > 100 µM | > 100 | > 100 µM | > 100 µM | > 100 | > 100 µM | – | > 100 µM | – | – | – | – | – | – | – | – | – | – | – | – |
| COc1cc([C@H]2c3cc4c(cc3[C@H](NCc3ccc([N+](=O)[O-])cc3)C3COC(=O)[C@H]32)OCO4)cc(OC)c1O (stereo partly specified) | 2.67 µM | 3.98 | 0.784 µM | > 100 µM | 10.4 | > 64.6 µM | 21.4 µM | > 81.8 µM | – | – | – | – | – | – | – | – | – | – | – | – |
| CC1(C)N=C(N)N=C(N)N1c1ccc(CCc2ccc(Cl)cc2S(=O)(=O)F)c(Cl)c1 | > 100 µM | 45.9 | 23 µM | 58.3 µM | > 100 | > 100 µM | > 100 µM | 27.5 µM | 62.8 | – | – | 11.8 | 7 | 16.6 | 6.2 | 10.3 | 67.5 | 7.95 | 9.6 | 23 |
| O=c1cc(-c2ccccc2)nc(/C=C(\O)c2ccncc2)n1-c1ccccc1 | > 100 µM | > 100 | > 100 µM | > 100 µM | > 100 | > 100 µM | > 100 µM | > 100 µM | – | – | – | – | – | – | – | – | – | – | – | – |
